The record followed here is patent publication US20260207585A1, “METHODS AND COMPOSITIONS FOR THE TREATMENT OF PARKINSON'S DISEASE, HUNTINGTON'S DISEASE, AMYOTROPHIC LATERAL SCLEROSIS, AND LEARNING DISORDERS” (Cedars-Sinai Medical Center, priority 2022, published 2026).

One test concerns AD+ mice. The test is described as follows: Fear conditioning test. The class given is in vivo. On the procedure: The effects of single and repeated ETP69 injections in mice were tested. The experimental timeline is depicted in FIG. 5. Three parallel injection conditions were tested: a single ETP69 condition, a boosted ETP69 injection, and repeated ETP69 injections. The single injection mice received one injection of ETP69 or DMSO at Day 0. The mice that received a boosted injection received one injection of ETP69 or DMSO at day 0 and one injection at day 9. The mice that received repeated injections received 11 injections of ETP69 or DMSO at day 0 or day 9. Both wildtype and AD model (APP/PS1-transgenic) mice were tested.
The results of the Open Field Barnes Maze test indicate hippocampal-based spatial memory. FIG. 7A depicts a schematic of the Barnes Maze Test. […] The results of the fear conditioning test indicate spatial memory.

In a further test the target is SUV39H2 (Homo sapiens, UniProt Q9H5I1). The test is described as follows: Methyltransferase inhibition panel: SUV39H2. It counts as biochemical. On the procedure: (§1) The ability of ETP69 to inhibit methyltransferases was tested.
A further test concerns the target T1, G9a (Homo sapiens, UniProt Q96KQ7).
T1 sequence (Q96KQ7 1-1210): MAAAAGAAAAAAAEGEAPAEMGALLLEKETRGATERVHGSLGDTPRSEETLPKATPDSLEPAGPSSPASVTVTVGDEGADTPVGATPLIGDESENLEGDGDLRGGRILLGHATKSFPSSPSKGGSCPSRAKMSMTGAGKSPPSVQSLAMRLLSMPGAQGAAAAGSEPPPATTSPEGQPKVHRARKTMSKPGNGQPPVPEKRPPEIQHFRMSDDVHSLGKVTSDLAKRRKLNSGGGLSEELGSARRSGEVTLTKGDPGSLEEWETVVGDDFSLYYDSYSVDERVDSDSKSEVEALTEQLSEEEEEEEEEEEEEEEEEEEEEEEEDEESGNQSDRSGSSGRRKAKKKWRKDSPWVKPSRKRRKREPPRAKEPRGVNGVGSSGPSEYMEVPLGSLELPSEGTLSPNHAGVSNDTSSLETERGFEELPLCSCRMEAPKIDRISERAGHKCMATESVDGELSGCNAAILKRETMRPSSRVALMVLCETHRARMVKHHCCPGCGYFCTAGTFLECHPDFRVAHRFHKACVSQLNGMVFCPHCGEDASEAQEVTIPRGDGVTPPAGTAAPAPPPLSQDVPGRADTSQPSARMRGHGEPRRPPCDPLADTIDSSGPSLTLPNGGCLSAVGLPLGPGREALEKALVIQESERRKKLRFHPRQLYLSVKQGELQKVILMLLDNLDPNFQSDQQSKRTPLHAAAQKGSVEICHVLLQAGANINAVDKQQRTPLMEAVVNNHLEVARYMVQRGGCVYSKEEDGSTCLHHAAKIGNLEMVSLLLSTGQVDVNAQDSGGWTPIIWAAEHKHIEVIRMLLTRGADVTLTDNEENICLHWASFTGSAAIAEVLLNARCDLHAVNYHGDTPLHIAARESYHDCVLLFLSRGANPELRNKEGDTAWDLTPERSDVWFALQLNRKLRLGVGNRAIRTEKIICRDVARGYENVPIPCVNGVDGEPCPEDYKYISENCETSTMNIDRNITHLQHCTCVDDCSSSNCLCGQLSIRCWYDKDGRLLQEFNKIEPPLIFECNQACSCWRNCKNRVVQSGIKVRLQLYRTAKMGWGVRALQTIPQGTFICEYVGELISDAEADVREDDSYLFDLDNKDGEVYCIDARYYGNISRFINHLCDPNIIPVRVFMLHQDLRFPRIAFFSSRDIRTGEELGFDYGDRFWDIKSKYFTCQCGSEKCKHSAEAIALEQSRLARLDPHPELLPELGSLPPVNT
Briefly: Methyltransferase inhibition panel: G9a. It counts as biochemical. How it is done:
as §1

The next test addresses PRMT5 (C449S)/MEP50 (Homo sapiens, UniProt O14744, C449S). The test is described as follows: Methyltransferase inhibition panel: PRMT5 (C449S)/MEP50. The class given is biochemical. On the procedure:
as §1

The target of another test is PRDM9 (Homo sapiens, UniProt Q9NQV7). Briefly: Methyltransferase inhibition panel: PRDM9. The class given is biochemical. How it is done: as §1
The mark [1] stands for this setting: read-out: Enzyme % Activity (relative to DMSO controls) Data 1.
Setting [2] is: read-out: Enzyme % Activity (relative to DMSO controls) Data 2.

Read-outs that look alike come from different tables or passages of the source.

SUV39H2, sequence (Q9H5I1 whole entry): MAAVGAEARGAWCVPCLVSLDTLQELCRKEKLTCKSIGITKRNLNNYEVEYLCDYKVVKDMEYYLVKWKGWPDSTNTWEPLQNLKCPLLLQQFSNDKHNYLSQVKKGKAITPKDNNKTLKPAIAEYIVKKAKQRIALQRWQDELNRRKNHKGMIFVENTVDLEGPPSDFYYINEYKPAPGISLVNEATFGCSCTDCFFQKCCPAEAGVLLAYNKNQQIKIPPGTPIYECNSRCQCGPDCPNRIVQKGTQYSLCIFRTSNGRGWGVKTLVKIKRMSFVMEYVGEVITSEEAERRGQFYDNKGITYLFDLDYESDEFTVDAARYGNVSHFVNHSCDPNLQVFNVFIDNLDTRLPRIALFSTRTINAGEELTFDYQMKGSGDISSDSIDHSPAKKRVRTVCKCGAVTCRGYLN
PRDM9, sequence (Q9NQV7 whole entry): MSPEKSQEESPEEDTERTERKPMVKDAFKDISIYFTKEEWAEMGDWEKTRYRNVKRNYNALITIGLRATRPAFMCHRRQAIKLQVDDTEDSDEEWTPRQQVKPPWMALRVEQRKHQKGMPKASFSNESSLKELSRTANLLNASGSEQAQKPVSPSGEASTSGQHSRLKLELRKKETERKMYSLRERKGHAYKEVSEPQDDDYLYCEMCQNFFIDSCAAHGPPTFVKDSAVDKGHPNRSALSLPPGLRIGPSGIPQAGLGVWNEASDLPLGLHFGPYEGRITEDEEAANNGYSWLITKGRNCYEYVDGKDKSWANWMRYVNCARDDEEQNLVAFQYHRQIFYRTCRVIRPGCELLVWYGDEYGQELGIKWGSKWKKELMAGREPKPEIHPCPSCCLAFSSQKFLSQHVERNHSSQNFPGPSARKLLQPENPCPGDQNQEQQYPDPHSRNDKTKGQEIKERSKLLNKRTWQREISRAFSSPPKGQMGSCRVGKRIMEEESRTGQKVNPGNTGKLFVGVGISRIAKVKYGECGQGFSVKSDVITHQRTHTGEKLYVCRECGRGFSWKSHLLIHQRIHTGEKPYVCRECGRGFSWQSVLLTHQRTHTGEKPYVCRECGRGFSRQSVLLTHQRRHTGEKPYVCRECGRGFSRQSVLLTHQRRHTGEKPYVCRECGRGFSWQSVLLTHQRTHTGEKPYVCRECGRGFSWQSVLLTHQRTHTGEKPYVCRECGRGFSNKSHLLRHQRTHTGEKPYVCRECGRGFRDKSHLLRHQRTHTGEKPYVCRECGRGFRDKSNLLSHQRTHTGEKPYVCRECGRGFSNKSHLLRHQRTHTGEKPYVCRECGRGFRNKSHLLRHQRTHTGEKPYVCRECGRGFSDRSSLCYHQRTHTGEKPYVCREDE
PRMT5 (C449S)/MEP50, sequence (O14744 whole entry C449S): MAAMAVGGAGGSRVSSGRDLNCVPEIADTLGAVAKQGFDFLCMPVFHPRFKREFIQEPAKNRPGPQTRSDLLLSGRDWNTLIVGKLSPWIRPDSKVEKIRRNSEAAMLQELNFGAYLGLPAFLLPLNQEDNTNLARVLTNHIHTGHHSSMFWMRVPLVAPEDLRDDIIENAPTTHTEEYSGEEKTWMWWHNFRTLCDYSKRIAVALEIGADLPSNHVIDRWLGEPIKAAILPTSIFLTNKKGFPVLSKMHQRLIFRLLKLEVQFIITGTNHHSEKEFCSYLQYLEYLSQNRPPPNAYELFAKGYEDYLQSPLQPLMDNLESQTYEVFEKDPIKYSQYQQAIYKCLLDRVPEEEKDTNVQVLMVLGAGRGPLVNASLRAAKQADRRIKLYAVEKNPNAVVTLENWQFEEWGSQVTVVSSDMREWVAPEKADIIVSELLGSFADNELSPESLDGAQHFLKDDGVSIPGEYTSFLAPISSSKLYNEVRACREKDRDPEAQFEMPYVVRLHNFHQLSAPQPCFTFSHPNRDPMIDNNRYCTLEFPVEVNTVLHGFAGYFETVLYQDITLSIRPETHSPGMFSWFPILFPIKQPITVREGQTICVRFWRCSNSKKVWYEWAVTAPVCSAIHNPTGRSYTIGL
PRMT5 (C449S)/MEP50, sequence (Q9BQA1 whole entry partner): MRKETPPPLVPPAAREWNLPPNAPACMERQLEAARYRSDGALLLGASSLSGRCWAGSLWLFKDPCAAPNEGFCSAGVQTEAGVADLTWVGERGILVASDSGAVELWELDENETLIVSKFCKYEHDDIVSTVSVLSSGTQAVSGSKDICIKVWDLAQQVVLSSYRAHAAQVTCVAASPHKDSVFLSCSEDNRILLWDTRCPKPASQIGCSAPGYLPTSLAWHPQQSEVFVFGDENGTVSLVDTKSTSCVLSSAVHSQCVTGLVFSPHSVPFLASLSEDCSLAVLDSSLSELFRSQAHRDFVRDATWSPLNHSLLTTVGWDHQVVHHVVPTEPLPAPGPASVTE

In the case of `CN1C(=O)[C@@]23C[C@](C)(C#N)[C@H](c4ccc5c(c4)OCO5)N2C(=O)[C@]1(C)SS3` (racemic) [ETP69, Rac-(3S,6S,7S,8aS)-6-(benzo[d][1,3]dioxol-5-yl)-2,3,7-trimethyl-1,4-dioxohexahydro-6H-3,8a-epidithiopyrrolo[1,2-a]pyrazine-7-carbonitrile], in the test on AD+ mice, the freezing time entry was “increased”. Moreover, the remaining activity at 20 µM at SUV39H2 (setting [1]) was determined as 4.4%; on SUV39H2 (setting [2]), 4.4%; at PRMT5 (C449S)/MEP50 (setting [1]), 121%; on PRMT5 (C449S)/MEP50 (setting [2]), 123%; on PRDM9 (setting [1]) it was 46.2%; on PRDM9 (setting [2]) it was 47.1%. Besides, the “inhibition relative to DMSO controls” value against SUV39H2 (summary of Table 1), against G9a (summary of Table 1) and at PRDM9 (summary of Table 1) was “at least 7500” each time. In addition, the remaining activity at 2.5 µM on G9a (setting [1]) was 40.9%; on G9a (setting [2]), 38.7%.
